Source: US11098294B2, “Anti-inflammatory peptides and composition comprising same” (GemVax & KAEL Co., Ltd., priority 2012, dated 2021)

Key:
Type in all cases: cell-based
[1] = tested on: nitric oxide (NO); experiment: NO level analysis (Griess reagent) in LPS-stimulated Raw 264.7 cells; details: Raw 264.7 cell, LPS 1 μg/mL, PEP 1 0.5 μg/mL
Experimental: (§1) Raw 264.7 macrophage cell (KCBL, 40071) from Korea Cell Bank was maintained in Dulbecco's modified Eagle's medium (DMEM; PAA, Austria) containing 10% fetal bovine serum (FBS; Gibco Laboratories), 100 unit/mL of streptomycin, and penicillin (Gibco Laboratories) at 37° C. with 5% CO2. Raw264.7 cells were seeded into a 96-well plate at a density of 1×10^6 cells/mL and incubated overnight.
[…] After 30 min incubation of cells with the peptide 50 μL of LPS (to a final concentration of 1 μg/mL) was added, and cells were incubated for additional 24 hr. The experimental sample with the induction of inflammatory response was treated with 1 μg/mL mL lipopolysaccharide (LPS; Sigma, USA) and control sample was treated with phosphate buffered saline (PBS; pH 7.2). The supernatant samples from each condition was collected in eppendorf tubes and subjected to further analysis.
The level of nitric oxide (NO) was measured in Raw 264.7 cell (1×10^6 cell/ml) using Griess reagent system (Promega, USA). Culture medium of 50 μl was added to a 96-well plate and Griess reagent I […] are added in the same amount. After 10 min incubation of cells with the reagents, the optical density at 540 nm was measured within 30 min using a microplate reader (Molecular Devices, USA). The concentration of NO was calculated by using a standard curve (0˜100 μM) of sodium nitrite.

[2] = tested on: IL-6; experiment: IL-6 secretion measurement (ELISA) in LPS-challenged RAW 264.7 cells; details: RAW 264.7 cell, LPS 1 μg/mL, PEP 1 5 μg/ml, 24 hr
Experimental: as §1
(§2) On the following day, the medium was replaced with fresh medium and 5 μg/mL of peptide (obtained as described in Experiment example 1) was added to the cells. After 30 min incubation of cells with the peptide 50 μL of LPS (to a final concentration of 1 μg/mL) was added, and cells were incubated for additional 24 hr. The experimental sample with the induction of inflammatory response was treated with 1 μg/mL mL lipopolysaccharide (LPS; Sigma, USA) and control sample was treated with phosphate buffered saline (PBS; pH 7.2). The supernatant samples from each condition was collected in eppendorf tubes and subjected to further analysis.
To investigate the effect of PEP1 on inhibiting pro-inflammatory cytokine production RAW 264.7 cell were pre-treated with PEP 1 at a concentration of 5 μg/mL challenged with LPS at a concentration of 1 μg/mL, and cells were further incubated for 24 hr. The supernatant samples containing cell culture medium was collected and analyzed for the cytokine levels using ELISA kits (eBioscience, San Diego).
96 wells plates were coated with 100 μl of capture antibodies (diluted in coating buffer to the concentration recommended by manufacturer's protocol) overnight at 4° C. Then, after washing the plates 5 times, 200 μL of assay diluents was added to each well and incubated for 1 hr at room temperature for blocking. […]
Following incubation with the secondary antibody, the plate was washed five times and incubated with 100 μl of avidin-HRP (BD Bioscience) for 30 min at room temperature. […] The reaction was stopped by adding 50 μl of 2N H2SO4 in each well The optical density at 450 nm was measured using a microplate reader. […]

[3] = tested on: HMGB1; experiment: Western blot, HMGB1 expression inhibition, LPS-stimulated cells
Experimental: as §1, §2
(§3) Protein expression level was determined by Western blot analysis. […] The membrane was incubated with ECL (enhanced chemiluminesence) solution (Amersham Life Science Corp., Arlington Heights, Ill., USA), exposed to X-ray, and the level of protein expression was analyzed according to the exposure level shown on the X-ray film.

[4] = tested on: TNF-α; experiment: Western blot, TNF-α expression inhibition, LPS-stimulated cells
Experimental: as §1, §2, §3

[5] = tested on: COX-2; experiment: Western blot, COX-2 expression inhibition, LPS-stimulated cells
Experimental: as §1, §2, §3

[6] = cells treated with both LPS and Pep1

EARPALLTSRLRFIPK [PEP 1]
Decreased NO Expression Level (%) [1]: 65% | NO Expression Level of control (%) [1]: 35% | NO Expression Level of control (%) ([1]; listed as Pep1): 65% | cytokine IL-6 production % of control [2]: 28% | cytokine IL-6 production inhibition % [2]: 72% | cytokine IL-6 production inhibition % ([2]; listed as PEP-1): more than 70% | Cytokine Expression Level (band intensity) % of control HMGB1 ([3]; LPS 1 μg/ml, PEP 1 5 μg/ml): 30% | decrease of pro-inflammatory cytokine level (HMGB1) [3, 6]: more than 70% | Cytokine Expression Level (band intensity) % of control TNF-α ([4]; LPS 1 μg/ml, PEP 1 5 μg/ml): 25% | decrease of pro-inflammatory cytokine level (TNF-α) [4, 6]: more than 70% | Cytokine Expression Level (band intensity) % of control COX-2 ([5]; LPS 1 μg/ml, PEP 1 5 μg/ml): 22% | decrease of pro-inflammatory cytokine level (COX) [5, 6]: more than 70%
